Measurements reported in ChEMBL document CHEMBL1150871, “New Briarane Stecholide Diterpenes from the Indonesian Gorgonian Briareum sp” (J Nat Prod, 1998).
Values after ≈ are worked out from the molar mass of the structure shown.

Columns and labels:
Type in all cases: functional, cell-based
A549 = test: Cytotoxicity against human A549 cells
HT-29 = test: Cytotoxicity against human HT-29 cells
P388 = test: Cytotoxicity against mouse P388 cells
SK-MEL-28 = test: Cytotoxicity against human SK-MEL-28 cells

Structure (SMILES) | IC50 (A549) [µg/mL] | IC50 (HT-29) [µg/mL] | IC50 (P388) [µg/mL] | IC50 (SK-MEL-28) [µg/mL] | EC50 (P388) [µg/mL]
CC(=O)O[C@H]1C/C(C)=C\[C@@H]2OC(=O)[C@]3(C)O[C@]23[C@@H](OC(C)=O)[C@H]2C(C)=CC[C@H](OC(C)=O)[C@]2(C)[C@H]1OC(C)=O | > 10 | > 10 | > 10 | > 10 | –
CC(=O)O[C@@H]1[C@@H]2O[C@]2(C)[C@@H]2[C@@H](OC(C)=O)[C@]34O[C@@]3(C)C(=O)O[C@H]4/C=C(/C)C[C@@H](OC(C)=O)[C@H](OC(C)=O)[C@@]2(C)[C@H]1OC(C)=O [STECHOLIDE K] | > 10 | > 10 | > 10 | > 10 | –
CC(=O)O[C@H]1C=C[C@@](C)(O)[C@@H]2[C@H](OC(C)=O)[C@@]34O[C@@]3(C)C(=O)O[C@H]4/C=C(/C)CC[C@H](OC(C)=O)[C@@]12C | > 10 | > 10 | > 10 | > 10 | –
CCCC(=O)O[C@H]1C[C@@H](OC(C)=O)/C(C)=C\[C@@H]2OC(=O)[C@]3(C)O[C@@]23[C@@H](OC(C)=O)[C@H]2[C@@]3(C)O[C@H]3C[C@H](OC(C)=O)[C@]12C [STECHOLIDE A ACETATE] | > 10 | > 10 | > 10 | > 10 | –
CC(=O)O[C@H]1C[C@@H]2O[C@]2(C)[C@@H]2[C@H](OC(C)=O)[C@@]34O[C@@]3(C)C(=O)O[C@H]4/C=C(/C)[C@H](OC(C)=O)C[C@H](OC(C)=O)[C@]12C [STECHOLIDE C ACETATE] | > 10 | > 10 | > 10 | > 10 | –
CC(=O)O[C@H]1CC/C(C)=C\[C@@H]2OC(=O)[C@]3(C)O[C@@]23[C@@H](OC(C)=O)[C@H]2[C@@]3(C)O[C@H]3C[C@H](OC(C)=O)[C@]12C | > 10 | > 10 | – | > 10 | 1.59 (≈ 3.14 µM)
CC(=O)O[C@@H]1[C@H]2[C@@]3(C)O[C@H]3[C@@H](O)[C@H](OC(C)=O)[C@]2(C)[C@@H](OC(C)=O)[C@H](OC(C)=O)C/C(C)=C\[C@@H]2OC(=O)[C@]3(C)O[C@@]213 [STECHOLIDE L] | 2.5 (≈ 4.31 µM) | 5 (≈ 8.61 µM) | 10 (≈ 17.2 µM) | 5 (≈ 8.61 µM) | –
CC(=O)O[C@@H]1[C@H]2C(C)=C[C@@H](O)[C@H](OC(C)=O)[C@]2(C)[C@@H](OC(C)=O)[C@H](OC(C)=O)C/C(C)=C\[C@@H]2OC(=O)[C@]3(C)O[C@@]213 [STECHOLIDE J] | > 10 | > 10 | > 10 | > 10 | –
CCCC(=O)O[C@@H]1C/C(C)=C\[C@@H]2OC(=O)[C@]3(C)O[C@]23[C@H](OC(C)=O)[C@H]2C(C)=C[C@@H](O)[C@H](OC(C)=O)[C@]2(C)[C@H]1OC(C)=O [STECHOLIDE I] | > 10 | > 10 | > 10 | > 10 | –
